{"source": "patent US7695908B2", "about": "“Methods for predicting methotrexate polyglutamate levels using pharmacogenetics” (Prometheus Laboratories Inc., priority 2004, dated 2010)", "data": [{"test": "HPLC quantification of red blood cell MTXPG concentrations in rheumatoid arthritis patients on low-dose MTX therapy, with regression on age, dose, route and RFC-1/GGH genotype", "type": "in vivo, human", "conditions": "multivariate linear regression, route p<0.04", "method": "(§1) The study was cross-sectional at three investigational sites (The Center of Rheumatology, Albany, N.Y.; Rheumatology Practice, Knoxville, Tenn.; Radiant Research, Daytona Beach, Fla.). To be eligible, patients (≧18 yrs.) had to meet the revised criteria of the American Rheumatism Association for Rheumatoid Arthritis and had to have received low-dose MTX therapy for at least three months. Other medications included low-dose corticosteroids (<10 mg day) and folic acid supplementation for the prevention of side-effects induced by MTX. Local Institutional Review Board approved the study and patient consent was obtained for each patient. Patients' demographics were collected at the time of enrollment in the study. Blood was drawn in EDTA-containing tubes and shipped overnight to Prometheus Laboratories Inc. (San Diego, Calif.) for analysis.\n(§2) Red blood cell MTXPG concentrations were measured as described previously using an HPLC-fluorometry procedure with a post-column photo-oxidation technique (Dervieux et al., Clin. Chem., 49:1632-1641 (2003)). Results are expressed in nmol/L as either total MTXPG1-5 levels or total long-chain MTXG3-5 levels (i.e., the sum of MTXP3+MTXPG4+MTXPG5 levels).\n(§3) The statistical analysis consisted of a multivariate linear or logistic regression, with MTXPG levels (i.e., MTXPG1-5, MTXPG3-5) as dependent variables and predictors (i.e., age, weekly MTX dose, route of administration, and RFC-1 and GGH genotypes) as independent variables. For calculating a pharmacogenetic index, the genotypes were dichotomized as homozygous mutants (RFC-1 80A/A and GGH −401T/T; value of 1) versus wild-type or heterozygous (RFC-1 80G/G or 80G/A and GGH −401C/C or −401C/T; value of 0) as appropriate. Group comparisons were performed with the Kruskall-Wallis ANOVA. The likelihood of having MTXPG levels above group median was derived from the logistic regression model. Odds ratio (OR) and probability (P) are given with a 95% confidence interval (CI). Estimates are given with standard error.", "values": [{"smiles": "CN(Cc1cnc2nc(N)nc(N)c2n1)c1ccc(C(=O)N[C@@H](CCC(=O)O)C(=O)O)cc1", "note": "[MTX, methotrexate]", "RBC MTXPG levels after injected MTX compared to oral administration": "higher MTXPG levels"}]}, {"test": "HPLC quantification of red blood cell MTXPG concentrations in rheumatoid arthritis patients on low-dose MTX therapy, with regression on age, dose, route and RFC-1/GGH genotype", "type": "in vivo, human", "conditions": "unadjusted, Kruskall-Wallis; FIG. 3", "method": "as §1, §2, §3", "values": [{"smiles": "CN(Cc1cnc2nc(N)nc(N)c2n1)c1ccc(C(=O)N[C@@H](CCC(=O)O)C(=O)O)cc1", "note": "[MTX, methotrexate]", "Change of RBC level with increased pharmacogenetic index (PI, from −1 to 1)": "no significant differences"}, {"smiles": "CN(Cc1cnc2nc(N)nc(N)c2n1)c1ccc(C(=O)NC(CCC(=O)NC(CCC(=O)O)C(=O)O)C(=O)O)cc1", "note": "(stereo not drawn) [MTXPG2]", "Change of RBC level with increased pharmacogenetic index (PI, from −1 to 1)": "no significant differences"}, {"smiles": "CN(Cc1cnc2nc(N)nc(N)c2n1)c1ccc(C(=O)N[C@@H](CCC(=O)N[C@@H](CCC(=O)N[C@@H](CCC(=O)O)C(=O)O)C(=O)O)C(=O)O)cc1", "note": "[MTXPG3]", "Change of RBC level with increased pharmacogenetic index (PI, from −1 to 1)": "increased"}, {"smiles": "CN(Cc1cnc2nc(N)nc(N)c2n1)c1ccc(C(=O)N[C@@H](CCC(=O)N[C@@H](CCC(=O)N[C@@H](CCC(=O)N[C@@H](CCC(=O)O)C(=O)O)C(=O)O)C(=O)O)C(=O)O)cc1", "note": "[MTXPG4]", "Change of RBC level with increased pharmacogenetic index (PI, from −1 to 1)": "increased"}, {"smiles": "CN(Cc1cnc2nc(N)nc(N)c2n1)c1ccc(C(=O)NC(CCC(=O)NC(CCC(=O)NC(CCC(=O)NC(CCC(=O)NC(CCC(=O)O)C(=O)O)C(=O)O)C(=O)O)C(=O)O)C(=O)O)cc1", "note": "(stereo not drawn) [MTXPG5]", "Change of RBC level with increased pharmacogenetic index (PI, from −1 to 1)": "increased"}]}]}
